In patent US4257941A, “Polycyclic nitrogen-containing compounds” (BASF Aktiengesellschaft, priority 1976, dated 1981):
Where two headings read alike, the source gives them in different places.

Legend:
Type in all cases: in vivo
[1] = test system: Triticum aestivum; assay: Growth height of young cereal plants (Example 11, Table A)
Source text: (§1) The vessels used for the experiments were plastic pots having a volume of 1,130 cm^3 (Table A) or paraffined paper cups having a volume of 170 cm^3 (Table B). The pots and cups were filled with a sandy loam. The seeds of the test plants-separated by species-were sown shallow. Preemergence treatment (soil treatment) was effected immediately after sowing and before germination of the seeds. Seeds lying on the surface came into contact with the active ingredients. Postemergence treatment (leaf treatment) took place at an average growth height of the plants (depending on the rate of growth) of from 6 to 10 cm. The substances were suspended, emulsified or dissolved in water as diluent and applied by means of fine nozzles. The vessels were kept in the greenhouse in a temperature range of 12° C. to 25° C., and were regularly sprinkler irrigated for the duration of the experiment. The observation period was 6 to 8 weeks.

[2] = test system: Hordeum vulgare; assay: as above; settings: soil treatment
Source text: as §1

[3] = test system: Galium aparine; assay: Herbicidal action (Example 25); settings: read-out: percentage damage; for pest or weed control at 2000 g/ha: 2.0 kg/ha; for pest or weed control at 4000 g/ha: 4.0 kg/ha; for pest or weed control at 8000 g/ha: 8.0 kg/ha
Description: (§2) Paraffined paper cups having a volume of 170 cm^3 were filled with a sandy loam, and the seeds of the test plants sown therein, separated by species. (The species are also listed below.)
(§3) In the first group, treatment was effected immediately after sowing and before germination of the seeds (preemergence treatment=soil treatment). Shallow sown seeds not completely covered with soil came into contact with the active ingredients. In the second group, the plants were treated postemergence (=leaf treatment) at a growth height of from 2 to 8 cm, depending on the rate of growth and shape of the species concerned. The compounds were suspended or emulsified in water and applied with the aid of fine nozzles. The soil and plants were thoroughly sprinkler irrigated for the duration of the experiment. The cups were placed in the greenhouse and kept in the temperature range 12°-25° C. or 18°-35° C., depending on the temperature requirements of the various species. After 2 to 6 weeks the action was assessed visually on a 0 to 100 scale, 0 denoting no damage and 100 denoting plants not germinated or completely destroyed.

[4] = test system: Poa annua; assay: Herbicidal action (Example 25); settings: Poa annua, read-out: percentage damage; for pest or weed control at 2000 g/ha: 2.0 kg/ha; for pest or weed control at 4000 g/ha: 4.0 kg/ha; for pest or weed control at 8000 g/ha: 8.0 kg/ha
Description: as §2, §3

[5] = test system: Lamium spp.; assay: Herbicidal action (Example 25)
Description: as §2, §3

[6] = test system: Solanum nigrum; assay: Herbicidal action (Example 25)
Description: as §2, §3

O=[N+]([O-])c1cccc(N2N=NC3C4CC(C5N=NC45)C32)c1 (centres unmarked)
Growth height ([1]; leaf treatment, 0.5 kg/ha): 28 cm
Growth height ([1]; leaf treatment, 1.0 kg/ha): 28 cm
Growth height ([1]; leaf treatment, 2.0 kg/ha): 17 cm
Growth height ([1]; soil treatment, 0.5 kg/ha): 26 cm
Growth height ([1]; soil treatment, 1.0 kg/ha): 26 cm
Growth height ([1]; soil treatment, 2.0 kg/ha): 13 cm
Growth height ([2]; 0.5 kg/ha): 36 cm
Growth height ([2]; 1.0 kg/ha): 36 cm
Growth height ([2]; 2.0 kg/ha): 29 cm

Clc1ccc(N2N=NC3C4CC(C5N=NC45)C32)c(Cl)c1 (centres unmarked)
Growth height ([1]; leaf treatment, 0.5 kg/ha): 40 cm
Growth height ([1]; leaf treatment, 1.0 kg/ha): 34 cm
Growth height ([1]; leaf treatment, 2.0 kg/ha): 35 cm
Growth height ([1]; soil treatment, 0.5 kg/ha): 25 cm
Growth height ([1]; soil treatment, 1.0 kg/ha): 25 cm
Growth height ([1]; soil treatment, 2.0 kg/ha): 20 cm
Growth height ([2]; 0.5 kg/ha): 40 cm
Growth height ([2]; 1.0 kg/ha): 38 cm
Growth height ([2]; 2.0 kg/ha): 53 cm

Clc1ccc(N2N=NC3C4CC(C5NNC45)C32)cc1 (centres unmarked) [drawing 369]
Growth height ([1]; leaf treatment, 0.25 kg/ha): 36 cm
Growth height ([1]; leaf treatment, 0.5 kg/ha): 30 cm
Growth height ([1]; leaf treatment, 1.0 kg/ha): 28 cm
Growth height ([1]; leaf treatment, 2.0 kg/ha): 25 cm
Growth height ([1]; soil treatment, 0.25 kg/ha): 22 cm
Growth height ([1]; soil treatment, 0.5 kg/ha): 12 cm
Growth height ([1]; soil treatment, 1.0 kg/ha): 6 cm
Growth height ([1]; soil treatment, 2.0 kg/ha): 7 cm
Growth height ([2]; 0.25 kg/ha): 36 cm
Growth height ([2]; 0.5 kg/ha): 30 cm
Growth height ([2]; 1.0 kg/ha): 18 cm
Growth height ([2]; 2.0 kg/ha): 14 cm

CN(C)C(=O)Nc1ccc(Oc2ccccc2)cc1 [drawing 427]
pest or weed control at 2000 g/ha ([3]; post-emergence, postemergence): 0%
pest or weed control at 4000 g/ha ([3]; post-emergence, postemergence): 0%
pest or weed control at 8000 g/ha ([3]; post-emergence, postemergence): 0%
pest or weed control at 2000 g/ha ([3]; pre-emergence, preemergence): 60%
pest or weed control at 4000 g/ha ([3]; pre-emergence, preemergence): 80%
pest or weed control at 8000 g/ha ([3]; pre-emergence, preemergence): 75%
pest or weed control at 2000 g/ha ([4]; post-emergence, postemergence): 30%
pest or weed control at 4000 g/ha ([4]; post-emergence, postemergence): 30%
pest or weed control at 8000 g/ha ([4]; post-emergence, postemergence): 30%
pest or weed control at 2000 g/ha ([4]; pre-emergence, preemergence): 50%
pest or weed control at 4000 g/ha ([4]; pre-emergence, preemergence): 58%
pest or weed control at 8000 g/ha ([4]; pre-emergence, preemergence): 65%
percentage damage ([5]; postemergence, 2.0 kg/ha): 75 percentage damage
percentage damage ([5]; postemergence, 4.0 kg/ha): 85 percentage damage
percentage damage ([5]; postemergence, 8.0 kg/ha): 85 percentage damage
percentage damage ([5]; preemergence, 2.0 kg/ha): 50 percentage damage
percentage damage ([5]; preemergence, 4.0 kg/ha): 65 percentage damage
percentage damage ([5]; preemergence, 8.0 kg/ha): 75 percentage damage
percentage damage ([6]; postemergence, 2.0 kg/ha): 100 percentage damage
percentage damage ([6]; postemergence, 4.0 kg/ha): 100 percentage damage
percentage damage ([6]; postemergence, 8.0 kg/ha): 100 percentage damage
percentage damage ([6]; preemergence, 2.0 kg/ha): 75 percentage damage
percentage damage ([6]; preemergence, 4.0 kg/ha): 80 percentage damage
percentage damage ([6]; preemergence, 8.0 kg/ha): 90 percentage damage

FC(F)(F)c1ccc(Cl)c(N2N=NC3C4CC(C5N=NC45)C32)c1 (centres unmarked) [drawing 361]
Growth height ([1]; leaf treatment, 0.5 kg/ha): 42 cm
Growth height ([1]; leaf treatment, 1.0 kg/ha): 27 cm
Growth height ([1]; leaf treatment, 2.0 kg/ha): 20 cm
Growth height ([1]; soil treatment, 0.5 kg/ha): 16 cm
Growth height ([1]; soil treatment, 1.0 kg/ha): 15 cm
Growth height ([1]; soil treatment, 2.0 kg/ha): 0 cm
Growth height ([2]; 0.5 kg/ha): 40 cm
Growth height ([2]; 1.0 kg/ha): 39 cm
Growth height ([2]; 2.0 kg/ha): 38 cm

c1cc2sncc2cc1N1N=NC2C3CC(C4N=NC34)C21 (centres unmarked) [drawing 368]
Growth height ([1]; leaf treatment, 0.25 kg/ha): 30 cm
Growth height ([1]; leaf treatment, 0.5 kg/ha): 23 cm
Growth height ([1]; leaf treatment, 1.0 kg/ha): 26 cm
Growth height ([1]; leaf treatment, 2.0 kg/ha): 20 cm
Growth height ([1]; soil treatment, 0.25 kg/ha): 32 cm
Growth height ([1]; soil treatment, 0.5 kg/ha): 28 cm
Growth height ([1]; soil treatment, 1.0 kg/ha): 20 cm
Growth height ([1]; soil treatment, 2.0 kg/ha): 23 cm
Growth height ([2]; 0.5 kg/ha): 36 cm
Growth height ([2]; 1.0 kg/ha): 39 cm
Growth height ([2]; 2.0 kg/ha): 31 cm
